# From PubChem BioAssay AID504576 (Southern Research Specialized Biocontainment Screening …, 2011)
# Tested on: MAGI cells cytotoxicity, 2% serum, % cell control
# Assay: MAGI cell cytotoxicity, R5 antiviral format, dose response, cytotoxicity control for HIV-1 antiviral lead project, CCR5-tropic MAGI assay, 2% serum, set 4 (AID 504576)
row,SMILES,CC50 [µM]
1,COc1ccccc1Cn1c(O)cc2nn(-c3nc4ccccc4s3)c(=O)c-2c1C,43.2
2,COc1ccc(CCn2c(O)cc3nn(-c4nc5ccccc5s4)c(=O)c-3c2C)cc1,13.8
3,COc1ccc(Cn2c(O)cc3nn(-c4nc5ccccc5s4)c(=O)c-3c2C)cc1,41.1
4,Cc1c2c(=O)n(-c3nc4ccccc4s3)nc-2cc(O)n1CCC(C)C,65
5,Cc1c2c(=O)n(-c3nc4ccccc4s3)nc-2cc(O)n1CCc1cccs1,74.8
6,Cc1c2c(=O)n(-c3nc4ccccc4s3)nc-2cc(O)n1Cc1ccccc1Cl,32.9
7,Cc1c2c(=O)n(-c3nc4ccccc4s3)nc-2cc(O)n1CCc1ccc(O)cc1,20.5
